The assay concerns the target human RIP1 kinase domain (2-375) (Homo sapiens (Human), UniProt Q13546). Nature of the assay: biochemical. Format: biochemical. The settings on record: read-out: RIP1 Ki. The essentials:
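50 nM purified kinase domain from baculovirus-infected insect cells, incubated 2 h with compound in 50 mM Hepes pH 7.5, 30 mM MgCl2, 1 mM DTT, 50 uM ATP, 0.002% Brij-35, 0.5% DMSO. ADP formation read by Transcreener FP at 633 nm excitation. Ki^app fitted with the Morrison tight-binding equation.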

[1] abbreviates: Table 1, apparent Ki (Morrison tight-binding fit), 50 nM RIP1 kinase domain, 50 uM ATP, 2 hours incubation.

Where two headings read alike, the source gives them in different places.

Sequence of human RIP1 kinase domain (2-375) (Q13546 2-375): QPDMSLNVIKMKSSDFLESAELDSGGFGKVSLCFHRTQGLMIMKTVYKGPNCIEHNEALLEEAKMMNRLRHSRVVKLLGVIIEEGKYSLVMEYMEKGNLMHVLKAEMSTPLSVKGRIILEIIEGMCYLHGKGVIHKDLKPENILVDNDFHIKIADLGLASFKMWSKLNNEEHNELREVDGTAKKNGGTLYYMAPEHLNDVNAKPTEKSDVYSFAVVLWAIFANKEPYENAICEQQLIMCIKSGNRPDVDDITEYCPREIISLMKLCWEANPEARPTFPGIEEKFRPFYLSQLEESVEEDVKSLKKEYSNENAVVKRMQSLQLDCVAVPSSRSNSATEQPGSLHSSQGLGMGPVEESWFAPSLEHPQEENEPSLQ

`CN1C(=O)[C@@H](NC(=O)c2n[nH]c3c2CC(c2ccccc2)CC3)COc2ccccc21` (stereo partly drawn) [Example 24, N—((S)-5-methyl-4-oxo-2,3,4,5-tetrahydrobenzo[b][1,4]oxazepin-3-yl)-5-phenyl-4,5,6,7-tetrahydro-1H-indazole-3-carboxamide]: the Ki under setting [1] turned out to be 27.9 nM.
Same read-out and setting: under `CC1Cc2c(C(=O)N[C@H]3COc4[nH]ncc4NC3=O)n[nH]c2CO1` (stereo partly drawn) [Example 25, 5-methyl-N—((S)-5-oxo-4,5,6,7-tetrahydro-1H-pyrazolo[3,4-b][1,4]oxazepin-6-yl)-1,4,5,7-tetrahydropyrano[3,4-c]pyrazole-3-carboxamide] stands above 10000 nM.
With `CN1C(=O)[C@@H](NC(=O)c2nnc(Cc3ccccc3)[nH]2)CCn2nccc21` [Example 27, (S)-5-benzyl-N-(4-methyl-5-oxo-5,6,7,8-tetrahydro-4H-pyrazolo [1,5-a][1,3]diazepin-6-yl)-4H-1,2,4-triazole-3-carboxamide], the Ki under setting [1] came to 45.4 nM.
Still for that read-out and setting: in the case of `Cc1cc2n(n1)CCC(NC(=O)c1nnc(Cc3ccccc3)[nH]1)C(=O)N2C` (stereo not drawn) [Example 28, 5-benzyl-N-(2,4-dimethyl-5-oxo-5,6,7,8-tetrahydro-4H-pyrazolo[1,5-a][1,3]diazepin-6-yl)-4H-1,2,4-triazole-3-carboxamide] it was 137 nM; in that of `CN1C(=O)C(NC(=O)c2nnc(Cc3ccccc3)[nH]2)CCn2nc(C3CC3)cc21` (stereo not drawn) [Example 29, 5-benzyl-N-(2-cyclopropyl-4-methyl-5-oxo-7,8-dihydro-6H-pyrazolo[1,5-a][1,3]diazepin-6-yl)-4H-1,2,4-triazole-3-carboxamide], 117 nM; in that of `CN1C(=O)C(NC(=O)c2nnc(Cc3ccccc3)[nH]2)CCn2nc(C(F)(F)F)cc21` (stereo not drawn) [Example 30, 5-benzyl-N-[4-methyl-5-oxo-2-(trifluoromethyl)-7,8-dihydro-6H-pyrazolo[1,5-a][1,3]diazepin-6-yl]-4H-1,2,4-triazole-3-carboxamide], 208 nM.
The same measure, in the same setting: under `Cc1cnn2c1N(C)C(=O)C(NC(=O)c1nnc(Cc3ccccc3)[nH]1)CC2` (stereo not drawn) [Example 31, 5-benzyl-N-(3,4-dimethyl-5-oxo-7,8-dihydro-6H-pyrazolo[1,5-a][1,3]diazepin-6-yl)-4H-1,2,4-triazole-3-carboxamide] stands 140 nM; under `CN1C(=O)[C@@H](NC(=O)c2n[nH]c3c2CCCC3)COc2ccccc21` [Example 32, (S)—N-(5-methyl-4-oxo-2,3,4,5-tetrahydrobenzo[b][1,4]oxazepin-3-yl)-4,5,6,7-tetrahydro-1H-indazole-3-carboxamide], 3400 nM; under `CN1C(=O)[C@@H](NC(=O)c2n[nH]c3ccccc23)COc2ccccc21` [Example 33, (S)—N-(5-methyl-4-oxo-2,3,4,5-tetrahydrobenzo[b][1,4]oxazepin-3-yl)-1H-indazole-3-carboxamide], 3500 nM.
On to `CN1C(=O)[C@@H](NC(=O)c2n[nH]c3c2CC(C(F)(F)F)CC3)COc2ccccc21` (stereo partly drawn) [Example 34, N-((S)-5-methyl-4-oxo-2,3,4,5-tetrahydrobenzo[b][1,4]oxazepin-3-yl)-5-(trifluoromethyl)-4,5,6,7-tetrahydro-1H-indazole-3-carboxamide], for which the Ki under setting [1] was found to be 7.68 nM.
As to `CN1C(=O)[C@@H](NC(=O)c2ncc3ccc(C(F)(F)F)cn23)COc2ccccc21` [Example 35, N-[(3S)-5-methyl-4-oxo-2,3-dihydro-1,5-benzoxazepin-3-yl]-6-(trifluoromethyl)imidazo[1,5-a]pyridine-3-carboxamide], under setting [1], the Ki was 8.74 nM.
On to `CN1C(=O)[C@@H](NC(=O)c2ncc3n2CC(C(F)(F)F)CC3)COc2ccccc21` (stereo partly drawn) [Example 36, N—((S)-5-methyl-4-oxo-2,3,4,5-tetrahydrobenzo[b][1,4]oxazepin-3-yl)-6-(trifluoromethyl)-5,6,7,8-tetrahydroimidazo[1,5-a]pyridine-3-carboxamide], for which the Ki under setting [1] is 185 nM.
On the same count and under the same terms, in the case of `CN1C(=O)[C@@H](NC(=O)c2ncn3ccc(C(F)(F)F)cc23)COc2ccccc21` [Example 37, N-[(3S)-5-methyl-4-oxo-2,3-dihydro-1,5-benzoxazepin-3-yl]-7-(trifluoromethyl)imidazo[1,5-a]pyridine-1-carboxamide] it was 5.08 nM; in that of `CN1C(=O)[C@@H](NC(=O)c2ncn3c2CC(C(F)(F)F)CC3)COc2ccccc21` (stereo partly drawn) [Example 38, N-[(3S)-5-methyl-4-oxo-2,3-dihydro-1,5-benzoxazepin-3-yl]-7-(trifluoromethyl)-5,6,7,8-tetrahydroimidazo[1,5-a]pyridine-1-carboxamide], 87.4 nM.
On the same count and under the same terms, under `CN1C(=O)[C@@H](NC(=O)c2n[nH]c3c2CCCCC3)COc2ccccc21` [Example 44, (S)-N-(5-methyl-4-oxo-2,3,4,5-tetrahydrobenzo[b][1,4]oxazepin-3-yl)-1,4,5,6,7,8-hexahydrocyclohepta[c]pyrazole-3-carboxamide] stands 3000 nM.
In the case of `CC1CCc2n[nH]c(C(=O)N[C@H]3COc4ccccc4N(C)C3=O)c2C1` (stereo partly drawn) [Example 45, 5-methyl-N-((S)-5-methyl-4-oxo-2,3,4,5-tetrahydrobenzo[b][1,4]oxazepin-3-yl)-4,5,6,7-tetrahydro-2H-indazole-3-carboxamide], the Ki was 62.6 nM.
As for `CC1CCc2n[nH]c(C(=O)N[C@H]3CCc4cc(Cl)ccc4NC3=O)c2C1` (stereo partly drawn) [Example 46, N-((S)-7-chloro-2-oxo-2,3,4,5-tetrahydro-1H-benzo[b]azepin-3-yl)-5-methyl-4,5,6,7-tetrahydro-2H-indazole-3-carboxamide], the Ki under setting [1] turned out to be 135 nM.
As for `CC(C)(C)C1CCc2[nH]nc(C(=O)N[C@H]3CCc4cc(Cl)ccc4NC3=O)c2C1` (stereo partly drawn) [Example 47, 5-(tert-butyl)-N-((S)-7-chloro-2-oxo-2,3,4,5-tetrahydro-1H-benzo[b]azepin-3-yl)-4,5,6,7-tetrahydro-1H-indazole-3-carboxamide], under setting [1], the Ki was 350 nM.
As for `CN1C(=O)[C@@H](NC(=O)c2n[nH]c3c2CCC3)COc2ccccc21` [Example 48, (S)-N-(5-methyl-4-oxo-2,3,4,5-tetrahydrobenzo[b][1,4]oxazepin-3-yl)-1,4,5,6-tetrahydrocyclopenta[c]pyra7.ole-3-carboxamide], the Ki under setting [1] was 8600 nM.
On the same count and under the same terms, under `O=C(N[C@H]1CCc2cc(Cl)ccc2NC1=O)c1n[nH]c2c1CCC2` [Example 49, (S)-N-(7-chloro-2-oxo-2,3,4,5-tetrahydro-1H-benzo[b]azepin-3-yl)-1,4,5,6-tetrahydrocyclopenta[c]pyrazole-3-carboxamide] stands 7600 nM; under `CC12Cc3[nH]nc(C(=O)N[C@H]4CCc5cc(Cl)ccc5NC4=O)c3CC1C2` (stereo partly drawn) [Example 50, N-((S)-7-chloro-2-oxo-2,3,4,5-tetrahydro-1H-benzo[b]azepin-3-yl)-5a-methyl-1,4,4a,5,5a,6-hexahydrocyclopropa[f]indazole-3-carboxamide], 3900 nM; under `CN1C(=O)[C@@H](NC(=O)c2ccc3c(n2)CCCC3)COc2ccccc21` [Example 51, (S)-N-(5-methyl-4-oxo-2,3,4.5-tetrahydrobenzo[b][1,4]oxazepin-3-yl)-5,6,7,8-tetrahydroquinoline-2-carboxamide], 8900 nM.
In the case of `CN1C(=O)[C@@H](NC(=O)c2nnc3ccc(Cl)nn23)COc2ccccc21` [Example 52, (S)-6-chloro-N-(5-methyl-4-oxo-2,3,4,5-tetrahydrobenzo[b][1,4]oxazepin-3-yl)-[l,2,4]triazolo[4,3-b]pyridazinc-3-carboxamide], the Ki under setting [1] was determined as 1200 nM.
In the case of `CC1(C)CCc2c(C(=O)N[C@H]3CCc4cc(Cl)ccc4NC3=O)n[nH]c2C1` [Example 53, (S)-N-(7-chloro-2-oxo-2,3,4,5-tetrahydro-1H-benzo[b]azepin-3-yl)-6,6-dimethyl-4,5,6,7-tetrahydro-1H-indazole-3-carboxamide], under setting [1], the Ki was 4500 nM.
The same measure, in the same setting: in the case of `O=C(N[C@H]1COc2ccccc2NC1=O)c1n[nH]c2c1C1CC1CC2` (stereo partly drawn) [Example 54, N-((S)-4-oxo-2,3,4,5-tetrahydrobenzo[b][1,4]oxazepin-3-yl)-3,4,5,5a,6,6a-hexahydrocyclopropa[e]indazole-1-carboxamide] it was 7700 nM.
For the compound `C[C@H]1CCc2[nH]nc(C(=O)N[C@H]3COc4ccccc4N(C)C3=O)c2C1` [Example 55, (S)-5-methyl-N-((S)-5-methyl-4-oxo-2,3,4,5-tetrahydrobenzo[b][1,4]oxazepin-3-yl)-4,5,6,7-tetrahydro-1H-indazole-3-carboxamide], the Ki turned out to be 103 nM.
On to `CN1C(=O)[C@@H](NC(=O)c2n[nH]c3c2CC2CC2C3)COc2ccccc21` (stereo partly drawn) [Example 56, N-((S)-5-methyl-4-oxo-2,3,4,5-tetrahydrobenzo[b][1,4]oxazepin-3-yl)-1,4,4a,5,5a,6-hexahydrocyclopropa[f]indazole-3-carboxamide], for which, under setting [1], the Ki came out at 922 nM.
With `CC1CCc2[nH]nc(C(=O)N[C@H]3COc4ccccc4NC3=O)c2C1` (stereo partly drawn) [Example 57, 5-methyl-N-((S)-4-oxo-2,3,4,5-tetrahydrobenzo[b][1,4]oxazepin-3-yl)-4,5,6,7-tetrahydro-1H-indazole-3-carboxamide], the Ki under setting [1] amounted to 276 nM.
`CN1C(=O)[C@@H](NC(=O)c2n[nH]c3c2C[C@@H](C(C)(C)C)CC3)COc2ccccc21` [Example 58, (S)-5-(tert-butyl)-N-((S)-5-methyl-4-oxo-2,3,4,5-tetrahydrobenzo[b][1,4]oxazepin-3-yl)-4,5,6,7-tetrahydro-1H-indazole-3-carboxamide]: the Ki was 121 nM.
For `CN1C(=O)[C@@H](NC(=O)c2n[nH]c3c2C2CC2CC3)COc2ccccc21` (stereo partly drawn) [Example 59, N-((S)-5-methyl-4-oxo-2,3,4,5-tetrahydrobenzo[b][1,4]oxazepin-3-yl)-3,4,5,5a,6,6a-hexahydrocyclopropa[e]indazole-1-carboxamide], the Ki under setting [1] was 1700 nM.
